Data as given in US6126795A, “Electroenzymatic reactor and method for enzymatic catalysis” (The United States of America as represented by the …, priority 1998, dated 2000).

B1: Pdx: putidaredoxin, a 2Fe-2S protein, redox carrier of the CYP101 system (protein, UniProt P00259 2-107, looked up)
Putidaredoxin: SKVVYVSHDGTRRELDVADGVSLMQAAVSNGIYDIVGDCGGSASCATCHVYVNEAFTDKVPAANEREIGMLECVTAELKPNSRLCCQIIMTPELDGIVVDVPDRQW

Assays:
CYP101 = CYP101 (Pseudomonas putida, UniProt P00183); experiment: Electrode-driven camphor hydroxylation by CYP101/Pdx in electroenzymatic reactor; assay type: biochemical
Description: The proteins were then purified using ion-exchange chromatography and size exclusion chromatography. The final protein preparations were at least 95% pure. On the basis of absorbance ratios, the mole fraction purity ×100 of each subunit protein was greater than 90. In addition, several preparations of the proteins were examined by high-resolution two-dimensional gel electrophoresis and by imaging analysis, and the mole fraction purity ×100 was estimated to be greater than 97 for each protein.
The working electrodes used in the following examples were antimony-doped, tin-oxide coated (0.3 μm thickness) glass slides (4×2 cm, Delta Technologies, Stillwater, Min.), with donor concentration as determined from Mott-Schottky plots (Nd =5×10^20 cm^-3). Prior to the biocatalysis experiments, the electrodes were soaked and sonicated in 1 M NaOH for approximately two hours, then rinsed with distilled water. They were activated in 15% HCl solution using a potential sweep between -0.5 and 1.5 V at 10 mV/s, and stored in distilled water. Film electrode resistance, as measured by a four point probe (Cascade Mictrotech, Inc., Model C4A-44 Beaverton, Oreg.), was 40-50 .OMEGA./sq.
The reference electrode was a standard Ag/AgCl (3M KCl) reference micro-electrode (Abtech Inc. RE803). The counter electrode was made as a coil of 0.5 mm thick Pt wire.
The buffer media was prepared using 0.16 M aqueous KCl and 0.01 M aqueous MgCl2, adjusted to about pH 7.4 with Tris-HCl buffer.
The product, 5-exo-hydroxy-camphor, was identified by GC-MS (gas chromatography and mass spectrophotometry) and quantified by GC-FID (gas chromatography and flame ionization detection). GC injection samples of 1-2 μL were prepared from approximately equal volumes of reaction mixture and an extraction cocktail comprising 0.3 g methylene chloride and 0.02 g KCl with 300 μM n-decane as an internal standard. The GC was operated with a DB-5 column (J&W Scientific, Folsom, Calif.) (30 m) with temperature programing (2 minutes at 60° C., ramp at 10° C./min to 120° C., 2 min at 120° C., ramp up at 15° C./min 160° C.). Retention times (He carrier gas at 2.8 bar pressure) were: n-decane 4.7 minutes, camphor 7.0 minutes, 5-exo-hydroxy-camphor 10.9 minutes. […] Identification of 5-exo-hydroxy-camphor as the product was done by comparing the m/e (mass/charge ratio) pattern (VG analytical Mass Spectrometer, 70 eV electron impact energy) with published spectra; see White et al., Arch. Biochem. Biophys.228, 493-502, 1984, the disclosure of which is incorporated herein by reference.
The same cell as described in Example 1 was equipped with two antimony-doped, tin-oxide electrodes and one platinum wire counter electrode. […] Electrolysis was started by applying a potential equal to -0.7 V (vs Ag/AgCl) to the tin oxide electrodes. […] Therefore, the enzyme underwent about 20 turnovers during the four hour period.
The same cell as described in Example 1 was equipped with-one antimony-doped, tin-oxide electrode and a Pt wire counter electrode isolated by a glass frit. A Pt sheet (0.5×10×30 mm) was positioned close to the surface of the working electrode. […] Initial GC analysis indicated no trace of the product. A potential equal to -0.7 V (vs Ag/AgCl) was applied to the tin oxide electrode. The Pt sheet was left at open circuit potential. After 5 hours of electrolysis, during which the solution was stirred by a magnetic stirrer, 442 μM product (5-exo-hydroxy-camphor) was detected by GC analysis. This corresponds to 1922 turnovers of the enzyme at an average rate of 384 turnovers/hour.
An antimony-doped, tin-oxide working electrode was wrapped in a Pt grid, which was electrically isolated from the conductive side of the electrode. A Pt wire, isolated from the working electrode and Pt grid by a glass frit, was utilized as a counter electrode. […]

[1] = Pdx integrity/activity after electrolysis and redox behaviour on antimony-doped tin-oxide electrode; assay type: physicochemical
Protocol: In a 1 cm path-length spectrophotometer cell, with 30 μM Pdx in the above-specified buffer, a potential of -0.7 V (vs. Ag/AgCl) was applied using a potentiostat, and an absorption spectrum was recorded through the transparent SnO2 electrode and 1 cm of reactor solution. The electrode surface area to solution volume ratio was about 5/m. A characteristic absorption spectrum of the oxidized Pdx was recorded initially. After 30 minutes of electrolytic reduction at -0.7 V, a characteristic spectrum of reduced Pdx was recorded. After an additional 30 minutes of electrolysis, the potential was switched to 0 V and a characteristic spectrum of oxidized Pdx was obtained. After electrolysis was complete, 50% of the initial activity of Pdx was recovered, as determined by the method described in Phillips and Langdon, J. Biol. Chem., 237, 2652 (1962), the disclosure of which is incorporated herein by reference. […] The recorded current-potential dependencies were stable and reproducible throughout the 6 hour period. […] The method described in this Example can be used to determine whether the working electrode has redox activity toward the redox carrier.
An antimony-doped, tin-oxide working electrode was wrapped in a Pt grid, which was electrically isolated from the conductive side of the electrode. A Pt wire, isolated from the working electrode and Pt grid by a glass frit, was utilized as a counter electrode. […] After 15.5 hours or electrolysis at -0.65 V (vs Ag/AgCl) and room temperature with continuous stirring, the solution contained 222 μM of product (5-exo-hydroxy-camphor), which corresponds to 1127 turnovers of the enzyme.

Molecule | Product Turnover Rate (CYP101; 12.8 μM CYP101 (no Pdx), Argon Purge, 800 μM camphor, -0.7 V, 21-22° C.) | Product Turnover Rate (CYP101; 41 μM Pdx (no CYP101), Argon Purge, 800 μM camphor, -0.7 V, 21-22° C.) | Product Turnover Rate (CYP101; 41 μM Pdx + 0.41 μM CYP101, Air Saturated, 800 μM camphor, -0.7 V, 21-22° C.) | Product Turnover Rate (CYP101; 55 μM Pdx + 0.18 μM CYP101, Argon Purge, 800 μM camphor, -0.7 V, 21-22° C.) | Product Turnover Rate (CYP101; 108 μM Pdx + 0.23 μM CYP101, Argon Purge, 800 μM camphor, -0.7 V, 21-22° C.) | Product Turnover Rate (CYP101; 1030 μM Pdx + 0.13 μM CYP101, Argon Purge, initial camphor 2 mM, -0.7 V, 21-22° C.) | Product Turnover Rate (CYP101; 1030 μM Pdx + 0.13 μM CYP101, Argon Purge, initial camphor concentration was mM, 37° C., -0.7 V) | turnovers of the enzyme (CYP101; Example 2: 10 μM CYP101, 118 μM Pdx, 600 μM camphor, -0.7 V, 240 minutes, argon purge) | average rate of enzyme turnover (CYP101; Example 3: 0.23 μM CYP101, 108 μM Pdx, 626 μM camphor, -0.7 V, 5 hours) | turnovers of the enzyme (CYP101; Example 3: 0.23 μM CYP101, 108 μM Pdx, 626 μM camphor, -0.7 V, 5 hours, Pt sheet near working electrode) | turnovers of the enzyme (CYP101; Example 4: 0.2 μM CYP101, 101 μM Pdx, 650 μM camphor, -0.65 V, 15.5 hours, room temperature, Pt grid) | formal potential [1] | initial activity of Pdx recovered after electrolysis ([1]; Example 1: 30 μM Pdx, electrolysis at -0.7 V then 0 V on SnO2 electrode) | Pdx remaining intact after electrolysis (% of the initial concentration) ([1]; Example 4: 101 μM initial Pdx, 15.5 hours at -0.65 V) | Pdx remaining intact after electrolysis (concentration) ([1]; Example 4: 101 μM initial Pdx, 15.5 hours at -0.65 V, spectrophotometric analysis)
CC12CCC(CC1=O)C2(C)C (stereo not drawn) [camphor] | 0 nmol 5exo-hydroxy-camphor/min/ | 0 nmol 5exo-hydroxy-camphor/min/ | 0.9 nmol 5exo-hydroxy-camphor/min/ | 4.2 nmol 5exo-hydroxy-camphor/min/ | 6.4 nmol 5exo-hydroxy-camphor/min/ | 34 nmol 5exo-hydroxy-camphor/min/ | 36 nmol 5exo-hydroxy-camphor/min/ | about 20 turnovers | 384 turnovers/hour | 1922 turnovers | 1127 turnovers | – | – | – | –
B1 | – | – | – | – | – | – | – | – | – | – | – | -0.42 V vs Ag/AgCl | 50% | about 85% | about 85 μM
